Reference: the supplement of paper PMC11061612

How the values were obtained:
Experiment in all cases: combination Emax (second highest fraction inhibited in the dose matrix, 72 h); higher = more inhibition; extreme values may be limits of the assay
[1] = system: NCI-H1688 (Small Cell Lung Carcinoma)
Summary of the method: (§1)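 Cell lines in DMEM/F12 or RPMI with 10% FBS were plated in 1536-well plates, held 24 hours at 37°C, 5% CO2, then given two-drug dose matrices for 72 hours (DMSO typically 0.2%). Viability was read by CellTiter-Glo 2.0 luminescence and scaled as inhibition from 0 (vehicle wells) to 1 (blank wells). Combination Emax is the second-highest inhibition in the matrix; Bliss excess is observed combination effect minus expected EA + EB − EA·EB, EA and EB being single-agent effects.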

[2] = system: HCC-827 (Lung Adenocarcinoma)
Summary of the method: as §1

[3] = system: HOP-92 (Non-Small Cell Lung Carcinoma)
Summary of the method: as §1

[4] = system: KG-1 (Acute Myeloid Leukemia)
Summary of the method: as §1

[5] = system: SK-LMS-1 (Other Solid Carcinomas)
Summary of the method: as §1

[6] = system: EFM-192A (Breast Carcinoma)
Summary of the method: as §1

[7] = system: RCC10RGB (Kidney Carcinoma)
Summary of the method: as §1

[8] = system: D-283MED (Other Solid Carcinomas)
Summary of the method: as §1

[9] = system: GDM-1 (Acute Myeloid Leukemia)
Summary of the method: as §1

[10] = system: HCC1143 (Breast Carcinoma)
Summary of the method: as §1

[11] = system: P31-FUJ (Acute Myeloid Leukemia)
Summary of the method: as §1

[12] = system: U-118-MG (Low Grade Glioma)
Summary of the method: as §1

| Structure (SMILES) | combination Emax [1] | combination Emax [2] | combination Emax [3] | combination Emax [4] | combination Emax [5] | combination Emax [6] | combination Emax [7] | combination Emax [8] | combination Emax [9] | combination Emax [10] | combination Emax [11] | combination Emax [12] |
| --- | --- | --- | --- | --- | --- | --- | --- | --- | --- | --- | --- | --- |
| Cc1c2c(nn1C)CSCc1cc(n(C)n1)CSc1cc(c3ccccc3c1)OCCCc1c(C(=O)O)n(C)c3c-2c(Cl)ccc13 [AZD5991] + C=CCn1c(=O)c2cnc(Nc3ccc(N4CCN(C)CC4)cc3)nc2n1-c1cccc(C(C)(C)O)n1 [AZD1775] (first compound max 1 µM, partner max 1 µM) | 0.601 | 0.401 | 0.807 | 1 | 0.431 | 0.71 | 0.541 | 0.971 | 0.961 | 0.797 | 0.99 | 0.339 |
| Cc1cc2ncnn2cc1Nc1ncc2c(n1)n(C1CCOCC1)c(=O)n2C [AZD7648] + O=C(c1cc(Cc2n[nH]c(=O)c3ccccc23)ccc1F)N1CCN(C(=O)C2CC2)CC1 [Olaparib] (first compound max 10 µM, 7x7, partner max 10 µM) | 0.135 | 0.199 | 0.292 | 0.131 | 0.281 | 0.278 | 0.18 | 0.639 | 0.628 | 0.148 | 0.34 | 0.394 |
| CN(C)CCCOc1ccc(-c2ccc3ncc4c(c3c2)n(C2CCOCC2)c(=O)n4C)cn1 [AZD0156] + CCN(CCO)CCCOc1ccc2c(Nc3cc(CC(=O)Nc4cccc(F)c4)[nH]n3)ncnc2c1 [AZD2811] (first compound max 1 µM, 7x7, partner max 1 µM) | 0.143 | 0.143 | 0.383 | 0.328 | 0.278 | 0.269 | 0.143 | 0.769 | 0.81 | 0.302 | 0.882 | 0.194 |
| CCc1c2c(nc3ccc(O)cc13)-c1cc3c(c(=O)n1C2)COC(=O)[C@]3(O)CC [SN-38] + O=C(c1cc(Cc2n[nH]c(=O)c3ccccc23)ccc1F)N1CCN(C(=O)C2CC2)CC1 [Olaparib] (first compound max 0.3 µM, 7x7, partner max 10 µM) | 0.534 | 0.497 |  |  | 0.889 |  |  | 0.947 |  |  | 0.987 |  |
| CN(CCO)CC[C@H](CSc1ccccc1)Nc1ccc(S(=O)(=O)NC(=O)c2ccc(N3CCC([C@@H](O)c4ccccc4-c4ccc(Cl)cc4)CC3)cc2)cc1S(=O)(=O)C(F)(F)F [AZD4320] + CCN(CCO)CCCOc1ccc2c(Nc3cc(CC(=O)Nc4cccc(F)c4)[nH]n3)ncnc2c1 [AZD2811] (first compound max 1 µM, 7x7, partner max 1 µM) | 0.723 | 0.176 | 0.968 | 0.966 | 0.845 | 0.172 | 0.133 | 0.973 | 1 | 0.304 | 0.954 | 0.487 |
| COc1cccc(OCCCN)c1-c1cc(Nc2cnc(C#N)cn2)n[nH]1 [Prexasertib] + C[C@@H]1COCCN1C2=NC(=NC(=C2)C3(CC3)[S@](=N)(=O)C)C4=C5C=CNC5=NC=C4 [AZD6738] (first compound max 1 µM, 7x7, partner max 10 µM) | 0.535 | 0.549 | 0.669 | 0.931 | 0.637 | 0.188 | 0.45 | 0.988 | 0.94 | 0.938 | 1 | 0.772 |
| CC(=O)Nc1cccc(-n2c(=O)n(C3CC3)c(=O)c3c(Nc4ccc(I)cc4F)n(C)c(=O)c(C)c32)c1 [Trametinib] + Cc1nc(-c2cn3c(n2)-c2ccc(-c4cnn(C(C)(C)C(N)=O)c4)cc2OCC3)n(C(C)C)n1 [Taselisib] (first compound max 1 µM, 7x7, partner max 10 µM) | 0.628 | 0.762 | 0.988 | 0.412 | 0.974 | 0.72 | 0.69 | 0.576 | 0.88 | 0.763 | 0.915 | 0.757 |
| Cc1c2c(nn1C)CSCc1cc(n(C)n1)CSc1cc(c3ccccc3c1)OCCCc1c(C(=O)O)n(C)c3c-2c(Cl)ccc13 [AZD5991] + CN(C)CCCOc1ccc(-c2ccc3ncc4c(c3c2)n(C2CCOCC2)c(=O)n4C)cn1 [AZD0156] (first compound max 1 µM, 7x7, partner max 1 µM) | 0.276 | 0.345 | 0.41 | 1 | 0.205 | 0.587 | 0.243 | 0.36 | 0.549 | 0.364 | 0.974 | 0.27 |
| CN(CCO)CC[C@H](CSc1ccccc1)Nc1ccc(S(=O)(=O)NC(=O)c2ccc(N3CCC([C@@H](O)c4ccccc4-c4ccc(Cl)cc4)CC3)cc2)cc1S(=O)(=O)C(F)(F)F [AZD4320] + C1CN(CCC1(C(=O)N[C@@H](CCO)C2=CC=C(C=C2)Cl)N)C3=NC=NC4=C3C=CN4 [Capivasertib] (first compound max 1 µM, 7x7, partner max 3 µM) | 0.575 | 0.201 | 0.891 | 0.929 | 0.305 | 0.418 | 0.237 | 0.763 | 0.991 | 0.297 | 0.869 | 0.497 |
| Cc1c2c(nn1C)CSCc1cc(n(C)n1)CSc1cc(c3ccccc3c1)OCCCc1c(C(=O)O)n(C)c3c-2c(Cl)ccc13 [AZD5991] + Cn1cnc2c(F)c(Nc3ccc(Br)cc3Cl)c(C(=O)NOCCO)cc21 [Selumetinib] (first compound max 1 µM, 7x7, partner max 3 µM) | 0.411 | 0.201 | 0.456 | 1 | 0.22 | 0.511 | 0.497 | 0.237 | 0.374 | 0.383 | 0.998 | 0.326 |
| CN(C)CCCOc1ccc(-c2ccc3ncc4c(c3c2)n(C2CCOCC2)c(=O)n4C)cn1 [AZD0156] + C[C@@H]1COCCN1C2=NC(=NC(=C2)C3(CC3)[S@](=N)(=O)C)C4=C5C=CNC5=NC=C4 [AZD6738] (first compound max 1 µM, 7x7, partner max 10 µM) | 0.382 | 0.495 | 0.665 | 0.711 | 0.525 | 0.245 | 0.403 | 1 | 0.52 | 0.871 | 0.912 | 0.528 |
| COc1cc2c(cc1OCCCCCOc1cc3c(cc1OC)C(=O)N1C=C(C)C[C@H]1C=N3)N=C[C@@H]1CC(C)=CN1C2=O [SG3199] + O=C(c1cc(Cc2n[nH]c(=O)c3ccccc23)ccc1F)N1CCN(C(=O)C2CC2)CC1 [Olaparib] (first compound max 0.001 µM, 7x7, partner max 10 µM) | 0.107 | 0.131 | 0.192 | 0.289 | 0.2 | 0.129 | 0.148 | 0.417 | 0.32 | 0.225 | 0.124 | 0.305 |
| COc1cccc(OCCCN)c1-c1cc(Nc2cnc(C#N)cn2)n[nH]1 [Prexasertib] + C=CCn1c(=O)c2cnc(Nc3ccc(N4CCN(C)CC4)cc3)nc2n1-c1cccc(C(C)(C)O)n1 [AZD1775] (first compound max 1 µM, partner max 1 µM) | 0.838 | 0.603 | 0.7 | 0.916 | 0.711 | 0.416 | 0.6 | 1 | 0.945 | 0.925 | 1 | 0.743 |
| COc1cccc(OCCCN)c1-c1cc(Nc2cnc(C#N)cn2)n[nH]1 [Prexasertib] + Cc1cc2ncnn2cc1Nc1ncc2c(n1)n(C1CCOCC1)c(=O)n2C [AZD7648] (first compound max 1 µM, 7x7, partner max 10 µM) | 0.557 | 0.566 | 0.663 | 0.912 | 0.637 | 0.284 | 0.442 | 0.995 | 0.924 | 0.883 | 1 | 0.686 |
| C=CCn1c(=O)c2cnc(Nc3ccc(N4CCN(C)CC4)cc3)nc2n1-c1cccc(C(C)(C)O)n1 [AZD1775] + C[C@@H]1COCCN1C2=NC(=NC(=C2)C3(CC3)[S@](=N)(=O)C)C4=C5C=CNC5=NC=C4 [AZD6738] (first compound max 1 µM, partner max 10 µM) | 0.789 | 0.609 | 0.643 | 0.83 | 0.704 | 0.39 | 0.538 | 1 | 0.861 | 0.906 | 0.952 | 0.662 |
| Cc1c2c(nn1C)CSCc1cc(n(C)n1)CSc1cc(c3ccccc3c1)OCCCc1c(C(=O)O)n(C)c3c-2c(Cl)ccc13 [AZD5991] + C[C@@H]1COCCN1C2=NC(=NC(=C2)C3(CC3)[S@](=N)(=O)C)C4=C5C=CNC5=NC=C4 [AZD6738] (first compound max 1 µM, 7x7, partner max 10 µM) | 0.47 | 0.426 | 0.723 | 1 | 0.453 | 0.735 | 0.43 | 0.992 | 0.91 | 0.827 | 0.998 | 0.506 |
| C[C@@H]1COCCN1c1cc(C2([S@](C)(=N)=O)CC2)nc(-c2ccnc3[nH]ccc23)n1 [AZD6738] + O=C(c1cc(Cc2n[nH]c(=O)c3ccccc23)ccc1F)N1CCN(C(=O)C2CC2)CC1 [Olaparib] (first compound max 10 µM, 7x7, partner max 10 µM) | 0.203 | 0.498 | 0.667 | 0.739 | 0.529 | 0.32 | 0.441 | 1 | 0.624 | 0.701 | 0.877 | 0.589 |
| C=CCn1c(=O)c2cnc(Nc3ccc(N4CCN(C)CC4)cc3)nc2n1-c1cccc(C(C)(C)O)n1 [AZD1775] + O=C(c1cc(Cc2n[nH]c(=O)c3ccccc23)ccc1F)N1CCN(C(=O)C2CC2)CC1 [Olaparib] (first compound max 1 µM, partner max 10 µM) | 0.6 | 0.368 | 0.596 | 0.412 | 0.563 | 0.293 | 0.52 | 1 | 0.827 | 0.593 | 0.868 |  |
